In patent US20020028938A1, “Prostaglandin endoperoxide H synthase biosynthesis inhibitors” (priority 1997, published 2002):

Key:
[1] = molecular target: T1, human amnionic whole cell cyclooxygenase-2 (WISH cells) (Homo sapiens, UniProt P35354); assay: IL-1β induced PGE2 production in WISH cells; format: cell-based; conditions: for IC50: read-out: Wish IC50 (parenthetical value); for inhibition at 0.01 µM / inhibition at 1 µM / inhibition at 0.1 µM: read-out: Wish % Inhib. at Dose
T1 construct: endogenous in cells; host or cells: human amnionic WISH cells, induced with IL-1beta
T1 sequence (P35354 18-604): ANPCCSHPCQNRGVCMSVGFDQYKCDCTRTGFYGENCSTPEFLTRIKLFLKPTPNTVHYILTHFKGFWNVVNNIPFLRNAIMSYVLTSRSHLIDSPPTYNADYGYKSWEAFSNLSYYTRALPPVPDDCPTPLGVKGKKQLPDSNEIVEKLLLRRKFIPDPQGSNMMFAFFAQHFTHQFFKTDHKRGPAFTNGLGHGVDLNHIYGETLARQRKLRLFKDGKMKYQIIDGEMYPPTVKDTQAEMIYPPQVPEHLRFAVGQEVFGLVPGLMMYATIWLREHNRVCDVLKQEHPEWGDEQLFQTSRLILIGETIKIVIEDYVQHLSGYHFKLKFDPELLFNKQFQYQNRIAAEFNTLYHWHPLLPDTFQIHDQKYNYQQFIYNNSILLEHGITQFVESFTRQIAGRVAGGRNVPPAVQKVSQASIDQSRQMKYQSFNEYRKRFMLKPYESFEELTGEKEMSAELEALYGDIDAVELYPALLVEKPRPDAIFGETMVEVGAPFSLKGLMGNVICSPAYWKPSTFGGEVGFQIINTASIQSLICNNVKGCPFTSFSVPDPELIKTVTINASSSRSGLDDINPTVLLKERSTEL
Protocol: EIA reagents for prostaglandin determination were purchased from Perseptive Diagnostics, (Cambridge, Mass.). Prostaglandin E2 (PGE2) levels in lavage fluids were determined after the samples were dried under nitrogen and reconstituted with assay buffer. PGE2 levels in enzyme assays or cell culture media were measured against standards prepared in the same milieu. The immunoassays were conducted as recommended by the manufacturer. The EIA was conducted in 96 well microtiter plates (Nunc Roskilde, Denmark) and optical density was measured using a microplate reader (Vmax, Molecular Devices Corp., Menlo Park, Calif.).
Human amnionic WISH cells were grown to 80% confluence in 48 well plates. Following removal of the growth medium and two washings with Geys Balanced Salt Solutn, 5 ng IL-1β /ml (UBI, Lake Placid, N.Y.) was added to the cells with or without test compound in DMSO (0.01% v/v) in Neuman-Tytell Serumless Medium (GIBCO, Grand Island, N.Y.).

[2] = molecular target: T2, recombinant human Cox-1 (r-hu Cox1) (Homo sapiens, UniProt P23219); assay: Recombinant human PGHS-1 enzyme assay (RHUCX1); format: biochemical
T2 construct: made in house; host or cells: baculovirus/Sf9 insect cells (microsomes)
T2 sequence (P23219 24-599): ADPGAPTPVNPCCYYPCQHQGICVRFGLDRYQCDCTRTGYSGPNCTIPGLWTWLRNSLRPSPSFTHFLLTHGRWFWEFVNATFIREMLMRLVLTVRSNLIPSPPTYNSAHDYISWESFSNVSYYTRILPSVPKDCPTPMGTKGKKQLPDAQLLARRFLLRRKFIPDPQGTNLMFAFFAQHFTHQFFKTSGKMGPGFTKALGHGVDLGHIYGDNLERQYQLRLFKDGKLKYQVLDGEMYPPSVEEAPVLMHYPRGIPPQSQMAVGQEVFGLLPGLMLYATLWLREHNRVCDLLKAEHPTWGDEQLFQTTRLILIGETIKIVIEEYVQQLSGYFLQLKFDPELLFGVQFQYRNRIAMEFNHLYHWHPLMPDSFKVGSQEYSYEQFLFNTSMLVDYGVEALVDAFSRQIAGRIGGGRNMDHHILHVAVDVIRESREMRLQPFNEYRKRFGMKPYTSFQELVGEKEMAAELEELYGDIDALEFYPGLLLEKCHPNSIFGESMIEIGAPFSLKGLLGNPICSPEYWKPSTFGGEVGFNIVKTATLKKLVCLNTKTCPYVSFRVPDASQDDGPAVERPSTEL
Summary of the method: (§1)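 PGE2 production measured by enzyme immunoassay with standards in the same milieu. Inhibition was computed versus control group mean and IC50 estimated by linear regression.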

[3] = molecular target: T3, recombinant human Cox-2 (r-hu Cox-2) (Homo sapiens, UniProt P35354); assay: Recombinant human PGHS-2 enzyme assay (RHUCX2); format: biochemical; conditions: for IC50: read-out: RHUCX2 IC50 (parenthetical value)
T3 construct: made in house; host or cells: baculovirus/Sf9 insect cells (microsomes)
T3 sequence (P35354 18-604): T1 sequence (P35354 18-604)
Summary of the method: as §1

[4] = 100 μM, read-out: RHUCX1 % Inh. at Dose
[5] = read-out: RHUCX2 % Inh. at Dose

`CS(=O)(=O)c1ccc(-c2cnn(Cc3ccccc3)c(=O)c2-c2ccc(Cl)c(Cl)c2)cc1` [Example 65, 2-Benzyl-4-(3,4-dichlorophenyl)-5-[4-(methylsulfonyl)phenyl]-3(2H)-pyridazinone] gave an IC50 [1] of 20 nM, an inhibition at 100 µM [2, 4] of 13% and an inhibition at 0.1 µM [3, 5] of 65%. The inhibition at 1 µM [3, 5] was 98% and the melting point was 161 to 163 °C.

`CS(=O)(=O)c1ccc(-c2cnn(CC(F)(F)F)c(=O)c2OC2CCCC2)cc1` [Example 85, 2-(2,2,2-Trifluoroethyl)-4-cyclopentyloxy-5-[4-(methylsulfonyl)phenyl]-3(2H)-pyridazinone] gave an IC50 [1] of 470 nM and a melting point of 148 to 150 °C.

For `CC(C)Nc1c(-c2ccc(S(C)(=O)=O)cc2)cnn(CC(F)(F)F)c1=O` [Example 86, 2-(2,2,2-Trifluoroethyl)-4-(2-propylamino)-5-[4-(methylsulfonyl)phenyl]-3(2H)-pyridazinone], the inhibition at 0.01 µM ([1]; 0.01 μM) was 47% and the inhibition at 1 µM [1] was 52%.

Work on `CS(=O)(=O)c1ccc(-c2cnn(-c3ccc(F)c(Cl)c3)c(=O)c2-c2ccc(Cl)cc2)cc1` [Example 102, 2-(3-Chloro-4-fluorophenyl)-4-(4-chlorophenyl)-5-[4-(methylsulfonyl)phenyl]-3(2H)-pyridazinone] yielded an IC50 [1] of 50 nM and a melting point of 205 °C.

Compound `NS(=O)(=O)c1ccc(-c2cnn(C3C=CCCC3)c(=O)c2-c2ccc(F)cc2)cc1` (stereo not shown) [Example 126] has an IC50 [1] of 50 nM.

Work on `CS(=O)(=O)c1ccc(-c2cnn(C3CCc4ccccc43)c(=O)c2-c2ccc(F)cc2)cc1` (stereo not shown) [Example 129, 2-(2,3-Dihydro-1H-inden-1-yl)-4-(4-fluorop,henyl)-5-[4-(methylsulfonyl)phenyl]-3(2H)-pyridazinone] yielded an IC50 [1] of 40 nM and a melting point of 128 to 130 °C.

Work on `CS(=O)(=O)c1ccc(-c2cnn(C3C4CC5CC(C4)CC3C5)c(=O)c2-c2ccc(F)cc2)cc1` (stereo not shown) [Example 132, 2-(2-Adamantyl)-4-(4-fluorophenyl)-5-[4-(methylsulfonyl)phenyl]-3(2H)-pyridazinone] yielded an inhibition at 0.01 µM ([1]; 0.01 μM) of 36%, an inhibition at 0.1 µM ([1]; 0.1 μM) of 100% and an inhibition at 1 µM ([2]; 1 μM, read-out: RHUCX1 % Inh. at Dose) of 93%. The inhibition at 0.1 µM [3, 5] was 43%, the inhibition at 1 µM [3, 5] was 88% and the melting point was 195 to 197 °C.

In the case of `NS(=O)(=O)c1ccc(-c2cnn(Cc3cc(F)c(F)cc3F)c(=O)c2-c2ccc(F)cc2)cc1` [Example 152, 2-(2,4,5-Trifluorobenzyl)-4-(4-fluorophenyl)-5-[4-(aminosulfonyl)phenyl]-3(2H)-pyridazinone], the IC50 [1] is reported as 29 nM and the melting point is reported as 236 to 238 °C.

For `C=Cc1cccc(-n2ncc(-c3ccc(S(C)(=O)=O)cc3)c(-c3ccc(F)cc3)c2=O)c1` [Example 162, 2-(3-Vinylphenyl)-4-(4-fluorophenyl)-5-[4-(methylsulfonyl)phenyl]-3(2H)-pyridazinone], the IC50 [1] was 34 nM and the melting point was 182 to 183 °C.

`CS(=O)(=O)c1ccc(-c2cnn(-c3ccc(F)c(F)c3)c(=O)c2Cc2ccc(F)cc2)cc1` [Example 171, 2-(3,4-Difluorophenyl)-4-(4-fluorobenzyl)-5-[4-(methylsulfonyl)phenyl]-3(2H)-pyridazinone] showed an inhibition at 0.1 µM ([1]; 0.1 μM) of 56%, an inhibition at 1 µM [1] of 90% and an inhibition at 100 µM [2, 4] of 0%. It also gave an inhibition at 0.1 µM [3, 5] of 61%, an inhibition at 1 µM [3, 5] of 74% and an inhibition at 10 µM ([3]; 10 μM, read-out: RHUCX2 % Inh. at Dose) of 82%. For the same compound, the melting point was 157 to 159 °C.

Work on `CS(=O)(=O)c1ccc(-c2cnn(-c3ccc(Cl)cc3F)c(=O)c2-c2ccc(F)cc2)cc1` [Example 191, 2-(4-Chloro-2-fluorophenyl)-4-(4-fluorophenyl)-5-[4-(methylsulfonyl)phenyl]-3(2H)-pyridazinone] yielded an IC50 [1] of 60 nM and a melting point of 250 to 260 °C.

Compound `CC(C)CSCc1c(-c2ccc(S(C)(=O)=O)cc2)cnn(-c2ccc(F)cc2)c1=O` [Example 198, 2-(4-Fluorophenyl)-4-(2-methylpropylthiomethyl)-5-[4-(methylsulfonyl)phenyl]-3(2H)-pyridazinone] has an IC50 [1] of 184 nM, an inhibition at 100 µM [2, 4] of 10% and an inhibition at 0.1 µM [3, 5] of 23%. The inhibition at 1 µM [3, 5] was 68% and the melting point was 45 to 60 °C.

`CC(C)Oc1c(-c2ccc(S(C)(=O)=O)cc2)cnn(-c2cccc(Br)c2)c1=O` [Example 203, 2-(3-Bromophenyl)-4-(2-propoxy)-5-[4-(methylsulfonyl)phenyl]-3(2H)-pyridazinone] showed an inhibition at 0.1 µM ([1]; 0.1 μM) of 23%, an inhibition at 1 µM [1] of 77% and a melting point of 130 to 132 °C.

`CS(=O)(=O)c1ccc(-c2cnn(-c3cccc(Cl)c3)c(=O)c2COc2ccc(F)cc2)cc1` [Example 207, 2-(3-Chlorophenyl)-4-(4-fluorophenoxmethyl)-5-[4-(methylsulfonyl)phenyl]-3(2H)-pyridazinone] showed an IC50 [1] of 68 nM, an inhibition at 0.1 µM [3, 5] of 81% and an inhibition at 1 µM [3, 5] of 97%.

With `CS(=O)(=O)c1ccc(-c2cnn(CC(F)(F)F)c(=O)c2OCc2ccco2)cc1` [Example 271, 2-(2,2,2-Trifluoroethyl)-4-(2-furylmethoxy)-5-[4-(methylsulfonyl)phenyl]-3(2H)-pyridazinone] the inhibition at 0.1 µM ([1]; 0.1 μM) was 15%, the inhibition at 1 µM [1] was 52% and the melting point was 113 to 115 °C.

Work on `CS(=O)(=O)c1ccc(-c2cnn(Cc3ccccc3)c(=O)c2-c2ccsc2)cc1` [Example 317, 2-Benzyl-4-(3-thienyl)-5-[4-(methylsulfonyl)phenyl]-3(2H)-pyridazinone] yielded an IC50 [1] of 27 nM.

`CS(=O)(=O)c1ccc(-c2cnn(Cc3ccccc3)c(=O)c2-c2cccc([N+](=O)[O-])c2)cc1` [Example 321, 2-Benzyl-4-(3-nitrophenyl)-5-[4-(methylsulfonyl)phenyl]-3(2H)-pyridazinone] showed an inhibition at 0.01 µM ([1]; 0.01 μM) of 50%, an inhibition at 100 µM [2, 4] of 4% and an IC50 [3] of 192 nM.

With `C=Cc1ccc(-c2c(-c3ccc(S(C)(=O)=O)cc3)cnn(Cc3ccccc3)c2=O)cc1` [Example 322, 2-Benzyl-4-(4-vinylphenyl)-5-[4-(methylsulfonyl)phenyl]-3(2H)-pridazinone] the IC50 [1] was 26 nM, the inhibition at 10 µM ([2]; 10 μM, read-out: RHUCX1 % Inh. at Dose) was 54% and the inhibition at 100 µM [2, 4] was 39%. The IC50 [3] was 58 nM.

For `CS(=O)(=O)c1ccc(-c2cnn(Cc3ccccc3)c(=O)c2-c2ccc(C(F)(F)F)cc2)cc1` [Example 323, 2-Benzyl-4-(4-trifluormethylphenyl)-5-[4-(methylsulfonyl)phenyl]-3(2H)-pyridazinone], the “Wish % Inhib. at Dose (μM)” value ([1]; 0.01 μM) was 57 @ 0.01%, the “RHUCX1 % Inh. at Dose (μM)” value ([2]; 100 μM) was 1 @ 100% and the IC50 [3] was 365 nM.

Compound `COc1ccccc1-c1c(-c2ccc(S(C)(=O)=O)cc2)cnn(Cc2ccccc2)c1=O` [Example 324, 2-Benzyl-4-(2-methoxyphenyl)-5-[4-(methylsulfonyl)phenyl]-3(2H)-pyridazinone] has an IC50 [1] of 47 nM.

Work on `COc1ccc(-c2c(-c3ccc(S(C)(=O)=O)cc3)cnn(Cc3ccccc3)c2=O)cc1F` [Example 326, 2-Benzyl-4-(3-fluoro-4-methoxyphenyl)-5-[4-(methylsulfonyl)phenyl]-3(2H)-pyridazinone] yielded an IC50 [1] of 50 nM.

For `CC(C)CCOc1c(-c2ccc(S(N)(=O)=O)cc2)cnn(C(C)(C)C)c1=O` [Example 399], the “Wish % Inhib. at Dose (μM)” value ([1]; 0.03 μM) was 39 @ 0.03% and the “Wish % Inhib. at Dose (μM)” value ([1]; 0.1 μM) was 82 @ 0.1%.

In the case of `CC(C)=CCCOc1c(-c2ccc(S(N)(=O)=O)cc2)cnn(-c2ccc(F)c(F)c2)c1=O` [Example 410], the IC50 [1] is reported as 53 nM, the “RHUCX1 % Inh. at Dose (μM)” value ([2]; 10 μM) is reported as 1 @ 10% and the “RHUCX1 % Inh. at Dose (μM)” value ([2]; 100 μM) is reported as 48 @ 100%. For the same compound, the “RHUCX2 % Inh. at Dose (μM)” value ([3]; 0.017 μM) was 47 @ 0.017% and the “RHUCX2 % Inh. at Dose (μM)” value ([3]; 0.035 μM) was 67 @0 .035%.
